Broadly, the IC50 is the concentration at which inhibition is half-maximal. What is called inhibition is how much of the control response was suppressed. Lower therefore signals little suppression. The EC50 is the concentration at which the effect is half-maximal. Higher therefore signals weaker potency.

The source of these data is ChEMBL document CHEMBL5233204, “Expanding the repertoire of methanocarba nucleosides from purinergic signaling to diverse targets” (RSC Med Chem, 2021).

For series [1], the target named is T1, Equilibrative nucleoside transporter 1 (Homo sapiens, UniProt Q99808).
T1 sequence (Q99808 whole entry): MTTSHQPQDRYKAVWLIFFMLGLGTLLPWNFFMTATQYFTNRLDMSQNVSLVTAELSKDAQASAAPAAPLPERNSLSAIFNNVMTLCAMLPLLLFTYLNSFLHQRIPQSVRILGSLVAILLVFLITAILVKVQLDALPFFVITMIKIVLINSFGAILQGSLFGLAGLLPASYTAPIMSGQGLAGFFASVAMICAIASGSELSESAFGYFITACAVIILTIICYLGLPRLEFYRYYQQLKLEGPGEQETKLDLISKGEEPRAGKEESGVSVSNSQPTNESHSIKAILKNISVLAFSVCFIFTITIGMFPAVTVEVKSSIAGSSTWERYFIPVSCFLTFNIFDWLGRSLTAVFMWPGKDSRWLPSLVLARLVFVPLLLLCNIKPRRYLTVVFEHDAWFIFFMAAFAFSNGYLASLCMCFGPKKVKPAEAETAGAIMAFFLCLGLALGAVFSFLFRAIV
The series can be described thus: Inhibition of ENT1 (unknown origin).

Series [2] concerns the target T2, P-gp (ABCB1) (Homo sapiens, UniProt P08183). Description: Activation of P-gp (unknown origin) ATPase activity at 10 uM relative to control. Particulars: read-out: Activity.
In the next series the test system is Human alphaherpesvirus 2. Description: Antiviral activity against HSV-2 by plaque reduction neutralization test. The class given is functional, organism-based. (In general: Plaques are areas of infected cells; plaque reduction assays count them against a control.)
A further series deals with Human alphaherpesvirus 1. Description: Antiviral activity against HSV-1 by plaque reduction neutralization test. The format is functional, organism-based.
Series [3] addresses T2, P-gp (ABCB1). The series can be described thus: Inhibition of P-gp (unknown origin) ATPase activity at 10 uM relative to control.
Series [4] addresses T3, Sodium/nucleoside cotransporter 1 (Homo sapiens, UniProt O00337).
T3 sequence (O00337 whole entry): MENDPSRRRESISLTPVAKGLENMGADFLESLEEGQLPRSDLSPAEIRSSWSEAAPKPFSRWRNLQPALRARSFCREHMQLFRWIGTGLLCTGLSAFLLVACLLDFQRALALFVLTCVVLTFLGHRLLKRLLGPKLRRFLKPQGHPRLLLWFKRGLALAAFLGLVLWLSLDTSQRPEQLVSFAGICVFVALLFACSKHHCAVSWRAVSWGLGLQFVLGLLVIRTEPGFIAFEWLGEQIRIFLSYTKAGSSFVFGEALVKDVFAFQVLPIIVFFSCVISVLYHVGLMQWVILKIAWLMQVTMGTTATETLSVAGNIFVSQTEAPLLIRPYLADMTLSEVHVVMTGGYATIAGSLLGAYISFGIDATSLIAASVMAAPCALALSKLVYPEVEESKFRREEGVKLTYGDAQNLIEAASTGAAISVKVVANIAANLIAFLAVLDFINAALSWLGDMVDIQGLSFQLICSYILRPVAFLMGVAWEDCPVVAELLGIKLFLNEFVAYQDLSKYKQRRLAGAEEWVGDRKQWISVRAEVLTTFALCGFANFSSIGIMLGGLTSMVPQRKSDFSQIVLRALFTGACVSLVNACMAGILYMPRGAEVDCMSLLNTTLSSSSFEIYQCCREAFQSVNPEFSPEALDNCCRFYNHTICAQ
The series can be described thus: Inhibition of CNT1 (unknown origin).

In series [5] the target is T4, Sodium/nucleoside cotransporter 2 (Homo sapiens, UniProt O43868).
T4 sequence (O43868 whole entry): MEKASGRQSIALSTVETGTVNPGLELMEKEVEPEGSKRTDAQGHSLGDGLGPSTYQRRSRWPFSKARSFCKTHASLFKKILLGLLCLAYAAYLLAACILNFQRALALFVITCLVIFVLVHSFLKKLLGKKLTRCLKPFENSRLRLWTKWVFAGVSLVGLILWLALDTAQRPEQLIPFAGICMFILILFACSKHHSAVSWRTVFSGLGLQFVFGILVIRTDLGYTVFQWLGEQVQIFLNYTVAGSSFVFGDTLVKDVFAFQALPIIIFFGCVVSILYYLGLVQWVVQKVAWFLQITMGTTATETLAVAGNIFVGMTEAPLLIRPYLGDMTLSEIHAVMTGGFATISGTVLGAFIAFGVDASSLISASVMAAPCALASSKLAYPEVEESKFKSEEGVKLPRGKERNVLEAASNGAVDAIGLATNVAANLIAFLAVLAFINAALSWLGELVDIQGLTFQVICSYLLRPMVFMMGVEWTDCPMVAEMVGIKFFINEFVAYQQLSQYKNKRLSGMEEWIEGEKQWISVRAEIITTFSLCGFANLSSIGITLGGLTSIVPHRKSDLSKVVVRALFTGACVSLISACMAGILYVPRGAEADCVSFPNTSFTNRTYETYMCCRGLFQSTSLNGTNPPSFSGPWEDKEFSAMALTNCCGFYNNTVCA
Description: Inhibition of CNT2 (unknown origin).

A further series addresses P2Y purinoceptor 6 (Mus musculus, UniProt Q9ERK9). Description: Agonist activity at P2Y6R in mouse adipose tissue. The class given is tissue-based.

T2 sequence (P08183 whole entry): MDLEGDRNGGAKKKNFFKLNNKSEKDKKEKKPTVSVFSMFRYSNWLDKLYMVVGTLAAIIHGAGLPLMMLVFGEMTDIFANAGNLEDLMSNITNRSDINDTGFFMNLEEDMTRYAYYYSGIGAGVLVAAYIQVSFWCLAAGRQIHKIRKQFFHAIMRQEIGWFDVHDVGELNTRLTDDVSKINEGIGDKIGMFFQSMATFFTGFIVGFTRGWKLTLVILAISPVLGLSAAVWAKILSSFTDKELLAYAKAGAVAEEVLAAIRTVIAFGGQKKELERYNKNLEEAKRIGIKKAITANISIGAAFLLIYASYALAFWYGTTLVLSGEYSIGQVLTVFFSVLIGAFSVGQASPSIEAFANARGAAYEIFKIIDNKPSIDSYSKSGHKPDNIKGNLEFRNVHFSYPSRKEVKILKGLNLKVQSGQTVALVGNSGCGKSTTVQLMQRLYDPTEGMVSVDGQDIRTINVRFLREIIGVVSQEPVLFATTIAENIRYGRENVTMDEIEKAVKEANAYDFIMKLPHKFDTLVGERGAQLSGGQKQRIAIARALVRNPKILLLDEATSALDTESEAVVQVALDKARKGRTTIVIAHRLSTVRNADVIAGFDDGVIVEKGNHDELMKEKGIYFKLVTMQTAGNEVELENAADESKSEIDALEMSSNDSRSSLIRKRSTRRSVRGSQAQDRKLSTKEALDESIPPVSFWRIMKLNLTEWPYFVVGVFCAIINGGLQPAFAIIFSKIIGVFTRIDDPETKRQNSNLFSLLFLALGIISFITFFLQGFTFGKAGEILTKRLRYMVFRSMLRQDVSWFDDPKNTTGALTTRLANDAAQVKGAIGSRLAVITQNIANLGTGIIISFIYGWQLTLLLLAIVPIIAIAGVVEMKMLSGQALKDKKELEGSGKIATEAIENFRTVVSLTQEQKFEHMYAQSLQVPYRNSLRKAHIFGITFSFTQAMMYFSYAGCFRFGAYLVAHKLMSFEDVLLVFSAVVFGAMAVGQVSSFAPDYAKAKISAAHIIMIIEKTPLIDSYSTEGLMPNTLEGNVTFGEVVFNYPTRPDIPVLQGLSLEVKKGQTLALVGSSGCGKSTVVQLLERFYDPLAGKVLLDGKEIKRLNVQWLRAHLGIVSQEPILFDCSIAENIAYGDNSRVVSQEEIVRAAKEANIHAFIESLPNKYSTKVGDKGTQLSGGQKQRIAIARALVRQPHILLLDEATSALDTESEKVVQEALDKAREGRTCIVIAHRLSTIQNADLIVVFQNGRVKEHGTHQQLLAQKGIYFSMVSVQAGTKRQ
Sequence of P2Y purinoceptor 6 (Q9ERK9 whole entry): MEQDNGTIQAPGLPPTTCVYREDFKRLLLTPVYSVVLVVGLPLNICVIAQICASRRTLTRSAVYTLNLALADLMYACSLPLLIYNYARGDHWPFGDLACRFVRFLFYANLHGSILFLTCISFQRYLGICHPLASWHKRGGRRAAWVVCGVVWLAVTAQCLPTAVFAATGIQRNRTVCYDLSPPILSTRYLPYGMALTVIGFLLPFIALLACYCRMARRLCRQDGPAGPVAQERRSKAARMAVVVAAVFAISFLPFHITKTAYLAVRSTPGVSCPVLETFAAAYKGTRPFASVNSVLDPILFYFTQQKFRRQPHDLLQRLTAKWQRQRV

In turn, `O=[N+]([O-])c1ccc(CSc2ncnc3c2ncn3[C@H]2[C@H](O)[C@H](O)[C@@]3(CO)C[C@H]23)cc1` yielded an IC50 in series [1] of 30 nM. With `CNC(=O)[C@]12C[C@@H]1[C@@H](n1cnc3c(NCc4cccc(Cl)c4)nc(C#Cc4ccccc4)nc31)[C@H](O)[C@@H]2O`, at P-gp (ABCB1) [2], the activity at 10 µM worked out at 31%. Take `Cc1cn([C@H]2C[C@H](O)[C@]3(CO)C[C@H]23)c(=O)[nH]c1=O` [(NORTH)-METHANOCARBATHYMIDINE]: the IC50 with Human alphaherpesvirus 2 is 250 nM; with Human alphaherpesvirus 1 it was 20 nM.

In turn, `CNC(=O)[C@]12C[C@@H]1[C@@H](n1cnc3c(N[C@@H]4C[C@H]4c4ccc(F)c(F)c4)nc(C#Cc4ccccc4)nc31)[C@H](O)[C@@H]2O` yielded an inhibition at 10 µM at P-gp (ABCB1) [3] of 53%.

For `O=[N+]([O-])c1ccc(CSc2ncnc3c2ncn3[C@@H]2O[C@H](CO)[C@@H](O)[C@H]2O)cc1` [NITROBENZYLMERCAPTOPURINE RIBONUCLEOSIDE], the IC50 in series [4] and in series [5] was greater than 10000 nM each time.

At P2Y purinoceptor 6, `CO/N=c1\ccn([C@]23C[C@H]2[C@@H](COP(=O)(O)OP(=O)(O)O)[C@@H](O)[C@H]3O)c(=O)[nH]1` gave an EC50 of 100 nM.
